We go through 13 molecules from patent US11130769B2 (Prelude Therapeutics Incorporated, priority 2018, dated 2021).

Each structure is given as a SMILES string.

One may read the IC50 as the midpoint of a concentration-inhibition curve.

Assay [1] addresses MCL-1 (Homo sapiens (Human), UniProt Q07820). The experiment in a line: Cell free Mcl-1:Bim affinity assay (fluorescence polarization competition). Type of assay: binding. The note with it: 15 nM MCL-1, 5 nM FITC-Bim, 1 hour at room temperature; class symbols; read-out: BIM_Ki. As to the method: The binding affinity of each compound was measured via a fluorescence polarization competition assay, in which the compound competes for the same binding site with the ligand, and thus leads to a dose-dependent anisotropy reduction. The tracer ligand utilized was a fluorescein isothiocyanate labelled peptide (FITC-[…]) derived from Bim (GenScript).
The assay was carried out in black half-area 96-well NBS plate (Corning), containing 15 nM of MCL-1 (BPS Bioscience), 5 nM of FITC-Bim and 3-fold serial diluted test compounds in a total volume of 50 μL of assay buffer (20 mM HEPES, 50 mM NaCl, 0.002% Tween 20, 1 mM TCEP, and 1% DMSO). The reaction plate was incubated for 1 hour at room temperature. The change of anisotropy is measured with an Envision multimode plate reader (PerkinElmer) at emission wavelength 535 nm. Fluorescence polarization was calculated in mP unit and the percentage inhibition was calculated by % inhibition=100×(mPDMSO−mP)/(mPDMSO−mPPC), in which mPDMSO is the DMSO control, and mPpc is the positive control. IC50 values were determined from a 10-point dose response curve by fitting the percent inhibition against compound concentration using the GraphPad Prism software. The inhibition constant Ki was subsequently calculated according to the Nikolovska-Coleska's equation (Anal. Biochem., 2004, 332, 261),
[formula] • where [I]50 is the concentration of the free inhibitor at 50% inhibition, [L]50 is the concentration of the free labeled ligand at 50% inhibition, [P]0 is the concentration of the free protein at 0% inhibition, and Kd is the dissociation constant of the protein-ligand complex. See Table F. Caspase 3/7 Activity Assay
(Fluorescence polarisation rises when a labelled molecule tumbles more slowly, as on binding a larger partner.)

For assay [2], the system named is H929 cells. The experiment in a line: Cell viability assay (H929 10 FBS). In kind it is cell-based. Conditions: Homo sapiens, NCI-H929, 24 hours, read-out: H929_10FBS IC50. As to the method:
Cell Viability Assay (H929 10 FBS)
Dispense 10 μL aliquot of prepared H929 cells (1:1 ratio of cells:Trypan Blue (#1450013, Bio-Rad)) onto cell counting slide (#145-0011, Bio-Rad) and obtain cell density and cell viability using cell counter (TC20, Bio-Rad). Remove appropriate volume of resuspended cells from culture flask to accommodate 4000 cells/well @ 10 μL/well. Transfer H929 cells to 50 mL conical (#430290, Corning). Spin down at 1000 rpm for 5 min using tabletop centrifuge (SPINCHRON 15, Beckman). Discard supernatant and resuspend cell pellet in modified RPMI 1640 (#10-040-CV, Corning) cell culture media containing 10% FBS (F2422-500 ML, Sigma), sodium pyruvate (100 mM) (#25-000-CL, Corning), HEPES buffer (1 M) (#25-060-CL, Corning) and glucose (200 g/L) (A24940-01, Gibco) to a cell density of 400,000 cells/mL. Dispense 10 μL of resuspended H929 cells per well in 384-well small volume TC treated plate (#784080, Greiner Bio-one) using standard cassette (#50950372, Thermo Scientific) on Multi-drop Combi (#5840310, Thermo Scientific) in laminar flow cabinet. Dispense compounds onto plates using digital liquid dispenser (D300E, Tecan). Incubate plates in humidified tissue culture incubator @ 37° C. for 24 hours. Add 10 μL of prepared CellTiTer-Glo® detection buffer (G7570, Promega) or ATPlite 1 Step detection reagent (#6016731, Perkin Elmer) to each well of 384-well plate using small tube cassette (#24073295, Thermo Scientific) on Combi multi drop, incubate @ RT for 30-60 min. Read plates with microplate reader (PheraStar, BMG Labtech) using 384 well luminescence mode.

Sequence of MCL-1 (Q07820 whole entry): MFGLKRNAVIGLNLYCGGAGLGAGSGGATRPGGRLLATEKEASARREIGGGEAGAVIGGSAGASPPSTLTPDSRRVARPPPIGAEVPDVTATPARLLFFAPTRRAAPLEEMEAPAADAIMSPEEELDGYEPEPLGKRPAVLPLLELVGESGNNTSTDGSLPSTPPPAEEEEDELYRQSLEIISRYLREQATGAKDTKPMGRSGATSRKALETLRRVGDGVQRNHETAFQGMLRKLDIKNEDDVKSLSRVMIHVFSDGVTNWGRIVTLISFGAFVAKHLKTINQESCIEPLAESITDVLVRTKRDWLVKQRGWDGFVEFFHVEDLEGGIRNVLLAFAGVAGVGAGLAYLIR

As for `CO[C@@H]1/C=C/COC(C)(C)C(=O)NS(=O)(=O)c2ccc3c(c2)N(C[C@@H]2CC[C@H]21)C[C@@]1(CCCc2cc(Cl)ccc21)CO3` [Example 30, (3R,6R,7R,8E,22S)-6′-Chloro-7-methoxy-12,12-dimethyl-15,15-dioxo-spiro[[11,20]dioxa-15-thia-1,14-diazatetracyclo[14.7.2.03,6.019,24]pentacosa[8,16(25),17,19(24)]tetraene-22,1′-tetralin]-13-one], in assay [1], the Ki is under 1 nM. Also, the 50% inhibitory concentration (IC50) in assay [2] was under 1000 nM.

Turning to `CO[C@@H]1/C=C/COC2(CCC2)C(=O)NS(=O)(=O)c2ccc3c(c2)N(C[C@@H]2CC[C@H]21)C[C@@]1(CCCc2cc(Cl)ccc21)CO3` [Example 31, (3R,6R,7R,8E,22S)-6′-Chloro-7-methoxy-12,12-(1,3-propylene)-15,15-dioxo-spiro[11,20-dioxa-15-thia-1,14-diazatetracyclo[14.7.2.03,6.019,24]pentacosa[8,16(25),17,19(24)]tetraene-22,1′-tetralin]-13-one], the Ki in assay [1] lay in the range of 1 to 100 nM. Besides, the IC50 in assay [2] was over 1000 nM.

On to `CC1(C)OC/C=C/[C@H](O)[C@@H]2CC[C@H]2CN2C[C@@]3(CCCc4cc(Cl)ccc43)COc3ccc(cc32)S(=O)(=O)NC1=O` [Example 32, (3R,6R,7S,8E,22S)-6′-Chloro-7-hydroxy-12,12-dimethyl-15,15-dioxo-spiro[11,20-dioxa-15-thia-1,14-diazatetracyclo[14.7.2.03,6.019,24]pentacosa-8,16,18,24-tetraene-22,1′-tetralin]-13-one], for which the Ki in assay [1] is under 1 nM. In assay [2], the IC50 is under 500 nM.

For the molecule `CC1(C)OC/C=C\[C@H](O)[C@@H]2CC[C@H]2CN2C[C@@]3(CCCc4cc(Cl)ccc43)COc3ccc(cc32)S(=O)(=O)NC1=O` [Example 33, (3R,6R,7S,8Z,22S)-6′-Chloro-7-hydroxy-12,12-dimethyl-15,15-dioxo-spiro[11,20-dioxa-15-thia-1,14-diazatetracyclo[14.7.2.03,6.019,24]pentacosa-8,16,18,24-tetraene-22,1′-tetralin]-13-one], the Ki in assay [1] was under 1 nM. In assay [2], the IC50 was under 500 nM.

`CN(C)C(=O)O[C@H]1/C=C/COC(C)(C)C(=O)NS(=O)(=O)c2ccc3c(c2)N(C[C@@H]2CC[C@H]21)C[C@@]1(CCCc2cc(Cl)ccc21)CO3` [Example 34, [(3R,6R,7S,8E,22S)-6′-Chloro-12,12-dimethyl-3,5,5-trioxo-spiro[11,20-dioxa-15-thia-1,14-diazatetracyclo[14.7.2.03,6.019,24]pentacosa-8,16,18,24-tetraene-22,1′-tetralin]-7-yl] N,N-dimethylcarbamate]: the Ki in assay [1] was under 1 nM. The IC50 in assay [2] is under 500 nM.

As for `CN(C)C(=O)O[C@H]1/C=C\COC(C)(C)C(=O)NS(=O)(=O)c2ccc3c(c2)N(C[C@@H]2CC[C@H]21)C[C@@]1(CCCc2cc(Cl)ccc21)CO3` [Example 35, [(3R,6R,7S,8Z,22S)-6′-Chloro-12,12-dimethyl-13,15,15-trioxo-spiro[11,20-dioxa-15-thia-1,14-diazatetracyclo[14.7.2.03,6.019,24]pentacosa-8,16,18,24-tetraene-22,1′-tetralin]-7-yl] N,N-dimethylcarbamate], in assay [1], the Ki is 1 to 100 nM. Also, the IC50 in assay [2] was over 1000 nM.

On to `CC1(C)OC/C=C/[C@@H](O)[C@@H]2CC[C@H]2CN2C[C@@]3(CCCc4cc(Cl)ccc43)COc3ccc(cc32)S(=O)(=O)NC1=O` [Example 36, (3R,6R,7R,8E,22S)-6′-Chloro-7-hydroxy-12,12-dimethyl-15,15-dioxo-spiro[11,20-dioxa-15-thia-1,14-diazatetracyclo[14.7.2.03,6.019,24]pentacosa-8,16,18,24-tetraene-22,1′-tetralin]-13-one], for which the Ki in assay [1] was under 1 nM. Besides, in assay [2], the IC50 was under 1000 nM.

Take `CN(C)C(=O)O[C@@H]1/C=C/COC(C)(C)C(=O)NS(=O)(=O)c2ccc3c(c2)N(C[C@@H]2CC[C@H]21)C[C@@]1(CCCc2cc(Cl)ccc21)CO3` [Example 37, [(3R,6R,7R,8E,22S)-6′-Chloro-12,12-dimethyl-13,15,15-trioxo-spiro[11,20-dioxa-15-thia-1,14-diazatetracyclo[14.7.2.03,6.019,24]pentacosa-8,16,18,24-tetraene-22,1′-tetralin]-7-yl] N,N-dimethylcarbamate]: in assay [1], the Ki was under 1 nM. In assay [2], the IC50 is under 500 nM.

Consider `O=C1NS(=O)(=O)c2ccc3c(c2)N(C[C@@H]2CC[C@H]2[C@H](O)/C=C/COC12CC2)C[C@@]1(CCCc2cc(Cl)ccc21)CO3` [Example 38, (3R,6R,7R,8E,22S)-6′-Chloro-7-hydroxy-12,12-ethylene-15,15-dioxo-spiro[11,20-dioxa-15-thia-1,14-diazatetracyclo[14.7.2.03,6.019,24]pentacosa[8,16(25),17,19(24)]tetraene-22,1′-tetralin]-13-one], for which the Ki in assay [1] is under 1 nM. Also, the IC50 in assay [2] is under 500 nM.

For `CN(C)C(=O)O[C@@H]1/C=C/COC2(CC2)C(=O)NS(=O)(=O)c2ccc3c(c2)N(C[C@@H]2CC[C@H]21)C[C@@]1(CCCc2cc(Cl)ccc21)CO3` [Example 39, [(3R,6R,7R,8E,22S)-6′-Chloro-12,12-ethylene-13,15,15-trioxo-spiro[11,20-dioxa-15-thia-1,14-diazatetracyclo[14.7.2.03,6.019,24]pentacosa-8,16,18,24-tetraene-22,1′-tetralin]-7-yl] N,N-dimethylcarbamate], in assay [1], the Ki was under 1 nM. Also, the IC50 in assay [2] was under 1000 nM.

For `O=C1NS(=O)(=O)c2ccc3c(c2)N(C[C@@H]2CC[C@H]2[C@@H](O)/C=C/COC12CC2)C[C@@]1(CCCc2cc(Cl)ccc21)CO3` [Example 40, (3R,6R,7S,8E,22S)-6′-Chloro-7-hydroxy-12,12-ethylene-15,15-dioxo-spiro[11,20-dioxa-15-thia-1,14-diazatetracyclo[14.7.2.03,6.019,24]pentacosa[8,16(25),17,19(24)]tetraene-22,1′-tetralin]-13-one], in assay [1], the Ki is under 1 nM. Further, the half-inhibitory concentration (IC50) in assay [2] is under 500 nM.

Take `CN(C)C(=O)O[C@H]1/C=C/COC2(CC2)C(=O)NS(=O)(=O)c2ccc3c(c2)N(C[C@@H]2CC[C@H]21)C[C@@]1(CCCc2cc(Cl)ccc21)CO3` [Example 41, [(3R,6R,7S,8E,22S)-6′-Chloro-12,12-ethylene-13,15,15-trioxo-spiro[11,20-dioxa-15-thia-1,14-diazatetracyclo[14.7.2.03,6.019,24]pentacosa-8,16,18,24-tetraene-22,1′-tetralin]-7-yl] N,N-dimethylcarbamate]: the Ki in assay [1] is under 1 nM. In assay [2], the IC50 was under 500 nM.

As to `CO[C@@H]1/C=C/CN(C)C(C)(C)C(=O)NS(=O)(=O)c2ccc3c(c2)N(C[C@@H]2CC[C@H]21)C[C@@]1(CCCc2cc(Cl)ccc21)CO3` [Example 42, (3R,6R,7R,8E,22S)-6′-Chloro-7-methoxy-11,12,12-trimethyl-15,15-dioxo-spiro[20-oxa-15-thia-1,11,14-triazatetracyclo[14.7.2.03,6.019,24]pentacosa-8,16,18,24-tetraene-22,1′-tetralin]-13-one], the Ki in assay [1] lay in the range of 1 to 100 nM. The IC50 in assay [2] was under 500 nM.
